Some test systems named below: S. aureus SA0077; S. aureus SA0085; S. aureus SA0422; S. aureus SA0736; S. aureus ATCC 29213.
Holding throughout (experiment): microbe, parasite or virus in culture
Common to all, as to conditions: Staphylococcus aureus

[1] abbreviates: ATCC29213, read-out: MIC values.
[2] abbreviates: ATCC29213, read-out: MIC values, Table S1: ATCC 29213 DAP (derivative after 40 passages on daptomycin).
[3] abbreviates: SA0085, read-out: MIC values, Table S1: SA0085 VAN (derivative after 40 passages on vancomycin).
The mark [4] stands for this setting: SA0422, read-out: MIC values, Table S1: SA0422 DAP (derivative after 40 passages on daptomycin).
The mark [5] stands for this setting: SA0736, read-out: MIC values, Table S1: SA0736 VAN (derivative after 40 passages on vancomycin).
Setting [6] is: SA0077, read-out: MIC values, Table S1: SA0077 Abf (passages on antibiotic-free media).
Where [7] appears, read: SA0077, read-out: MIC values, Table S1: SA0077 DAP (derivative after 40 passages on daptomycin).
[8] abbreviates: SA0077, read-out: MIC values, Table S1: SA0077 VAN (derivative after 40 passages on vancomycin).
[9] abbreviates: ATCC29213, read-out: MIC values, Table S1: ATCC 29213 VAN (derivative after 40 passages on vancomycin).
The mark [10] stands for this setting: SA0422, read-out: MIC values, Table S1: SA0422 VAN (derivative after 40 passages on vancomycin).
Setting [11] is: SA0736, read-out: MIC values, Table S1: SA0736 DAP-W (40 passages on daptomycin, white colonies).

Converted amounts (≈) assume the structure as drawn. Like-named read-outs stand apart in the source and are kept apart here.

For the compound `CNC(C)C1CCC(N)C(OC2C(N)CC(N)C(OC3OCC(C)(O)C(NC)C3O)C2O)O1` (stereo not drawn) [Gentamicin], the MIC is above 128 µg/mL with S. aureus SA0077 (SA0077, read-out: MIC values); above 128 µg/mL in the assay with S. aureus SA0085 (SA0085, read-out: MIC values); above 128 µg/mL in the assay with S. aureus SA0422 (SA0422, read-out: MIC values); above 128 µg/mL in the assay with S. aureus SA0736 (SA0736, read-out: MIC values); 1 µg/mL (≈ 2.09 µM) in the assay on S. aureus ATCC 29213 (setting [1]); 0.25 µg/mL (≈ 0.523 µM) in the assay on S. aureus ATCC 29213 (setting [2]).

Regarding `CC(=O)NC[C@H]1CN(c2ccc(N3CCOCC3)c(F)c2)C(=O)O1` [Linezolid], the MIC with S. aureus SA0077 (SA0077, read-out: MIC values) turned out to be 1 µg/mL (≈ 2.96 µM); in the assay with S. aureus SA0085 (SA0085, read-out: MIC values), 4 µg/mL (≈ 11.9 µM); with S. aureus SA0085 (setting [3]), 1 µg/mL (≈ 2.96 µM); in the assay with S. aureus SA0422 (SA0422, read-out: MIC values), 2 µg/mL (≈ 5.93 µM); with S. aureus SA0422 (setting [4]), 1 µg/mL (≈ 2.96 µM); in the assay with S. aureus SA0736 (SA0736, read-out: MIC values), 1 µg/mL (≈ 2.96 µM). Further, the MIC in the assay on S. aureus SA0736 (setting [5]) came out at 2 µg/mL (≈ 5.93 µM); in the assay with S. aureus ATCC 29213 (setting [1]) it was 2 µg/mL (≈ 5.93 µM); in the assay on S. aureus ATCC 29213 (setting [2]), 1 µg/mL (≈ 2.96 µM).

Take `CN(C)c1cc(NC(=O)CNC(C)(C)C)c(O)c2c1C[C@H]1C[C@H]3[C@H](N(C)C)C(O)=C(C(N)=O)C(=O)[C@@]3(O)C(O)=C1C2=O` [Tigecycline]: the MIC in the assay with S. aureus SA0077 (SA0077, read-out: MIC values) came to 0.25 µg/mL (≈ 0.427 µM); with S. aureus SA0077 (setting [6]) it was 0.06 µg/mL (≈ 0.102 µM); with S. aureus SA0077 (setting [7]), 0.06 µg/mL (≈ 0.102 µM); in the assay with S. aureus SA0077 (setting [8]) it was 0.06 µg/mL (≈ 0.102 µM); with S. aureus SA0085 (SA0085, read-out: MIC values), 0.125 µg/mL (≈ 0.213 µM); in the assay with S. aureus SA0422 (SA0422, read-out: MIC values), 0.125 µg/mL (≈ 0.213 µM). Also, the MIC with S. aureus SA0422 (setting [4]) was determined as 0.06 µg/mL (≈ 0.102 µM); in the assay with S. aureus SA0736 (SA0736, read-out: MIC values), 0.06 µg/mL (≈ 0.102 µM); with S. aureus SA0736 (setting [5]) it was 0.125 µg/mL (≈ 0.213 µM); in the assay with S. aureus ATCC 29213 (setting [1]), 0.03 µg/mL (≈ 0.0512 µM); with S. aureus ATCC 29213 (setting [2]), 0.016 µg/mL (≈ 0.0273 µM); in the assay with S. aureus ATCC 29213 (setting [9]), 0.06 µg/mL (≈ 0.102 µM).

For `O=C(O)c1cn(C2CC2)c2cc(N3CCNCC3)c(F)cc2c1=O` [Ciprofloxacin], the MIC with S. aureus SA0077 (SA0077, read-out: MIC values) is 16 µg/mL (≈ 48.3 µM); in the assay with S. aureus SA0077 (setting [6]), 32 µg/mL (≈ 96.6 µM); in the assay with S. aureus SA0077 (setting [8]), 64 µg/mL (≈ 193 µM); in the assay on S. aureus SA0085 (SA0085, read-out: MIC values), 256 µg/mL (≈ 773 µM); in the assay on S. aureus SA0085 (setting [3]) it was 32 µg/mL (≈ 96.6 µM); in the assay with S. aureus SA0422 (SA0422, read-out: MIC values), 128 µg/mL (≈ 386 µM). Also, the MIC is 32 µg/mL (≈ 96.6 µM) in the assay on S. aureus SA0422 (setting [4]); 64 µg/mL (≈ 193 µM) in the assay on S. aureus SA0422 (setting [10]); 128 µg/mL (≈ 386 µM) with S. aureus SA0736 (SA0736, read-out: MIC values); 64 µg/mL (≈ 193 µM) in the assay on S. aureus SA0736 (setting [11]); 32 µg/mL (≈ 96.6 µM) in the assay on S. aureus SA0736 (SA0736, read-out: MIC values, Table S1: SA0736 DAP-Y (40 passages on daptomycin, yellow colonies)); 16 µg/mL (≈ 48.3 µM) in the assay on S. aureus SA0736 (setting [5]). The MIC in the assay on S. aureus ATCC 29213 (setting [1]) amounted to 0.25 µg/mL (≈ 0.754 µM).

Regarding `CC[C@H]1OC(=O)[C@H](C)[C@@H](O[C@H]2C[C@@](C)(OC)[C@@H](O)[C@H](C)O2)[C@H](C)[C@@H](O[C@@H]2O[C@H](C)C[C@H](N(C)C)[C@H]2O)[C@](C)(O)C[C@@H](C)C(=O)[C@H](C)[C@@H](O)[C@]1(C)O` [Erythromycin], the MIC is above 128 µg/mL with S. aureus SA0077 (SA0077, read-out: MIC values); above 128 µg/mL in the assay on S. aureus SA0085 (SA0085, read-out: MIC values); 0.125 µg/mL (≈ 0.17 µM) with S. aureus SA0422 (SA0422, read-out: MIC values); 0.5 µg/mL (≈ 0.681 µM) in the assay on S. aureus SA0422 (setting [10]); 0.125 µg/mL (≈ 0.17 µM) in the assay on S. aureus SA0736 (SA0736, read-out: MIC values); 0.5 µg/mL (≈ 0.681 µM) with S. aureus SA0736 (setting [5]). Moreover, the figures for the MIC in the assay with S. aureus ATCC 29213 (setting [1]), in the assay with S. aureus ATCC 29213 (setting [2]) and in the assay with S. aureus ATCC 29213 (setting [9]) were 0.25 µg/mL (≈ 0.341 µM), 0.125 µg/mL (≈ 0.17 µM) and 0.5 µg/mL (≈ 0.681 µM), respectively.

Take `Cn1nnc(-c2ccc(-c3ccc(N4C[C@H](CO)OC4=O)cc3F)cn2)n1` [Tedizolid]: the MIC with S. aureus SA0077 (SA0077, read-out: MIC values) is 0.25 µg/mL (≈ 0.675 µM); in the assay on S. aureus SA0077 (setting [6]), 0.125 µg/mL (≈ 0.338 µM); in the assay with S. aureus SA0077 (setting [7]) it was 0.125 µg/mL (≈ 0.338 µM); with S. aureus SA0077 (setting [8]) it was 0.125 µg/mL (≈ 0.338 µM); with S. aureus SA0085 (SA0085, read-out: MIC values) it was 0.5 µg/mL (≈ 1.35 µM); with S. aureus SA0085 (setting [3]), 0.06 µg/mL (≈ 0.162 µM). Moreover, the MIC was 0.25 µg/mL (≈ 0.675 µM) with S. aureus SA0422 (SA0422, read-out: MIC values); 0.125 µg/mL (≈ 0.338 µM) in the assay on S. aureus SA0422 (setting [4]); 0.125 µg/mL (≈ 0.338 µM) in the assay on S. aureus SA0736 (SA0736, read-out: MIC values); 0.25 µg/mL (≈ 0.675 µM) with S. aureus ATCC 29213 (setting [1]).

For the compound `CCC[C@@H]1C[C@@H](C(=O)N[C@@H]([C@H]2O[C@H](SC)[C@H](O)[C@@H](O)[C@H]2O)[C@H](C)Cl)N(C)C1` [Clindamycin], the MIC is above 64 µg/mL with S. aureus SA0077 (SA0077, read-out: MIC values); above 64 µg/mL in the assay with S. aureus SA0085 (SA0085, read-out: MIC values); 0.06 µg/mL (≈ 0.141 µM) in the assay with S. aureus SA0422 (SA0422, read-out: MIC values); 0.06 µg/mL (≈ 0.141 µM) in the assay on S. aureus SA0736 (SA0736, read-out: MIC values); 0.06 µg/mL (≈ 0.141 µM) in the assay on S. aureus ATCC 29213 (setting [1]).

Consider `COc1c(N2C[C@@H]3CCCN[C@@H]3C2)c(F)cc2c(=O)c(C(=O)O)cn(C3CC3)c12` [Moxifloxacin], for which the MIC in the assay on S. aureus SA0077 (SA0077, read-out: MIC values) was determined as 2 µg/mL (≈ 4.98 µM); in the assay with S. aureus SA0077 (setting [8]) it was 4 µg/mL (≈ 9.96 µM); in the assay on S. aureus SA0085 (SA0085, read-out: MIC values), 8 µg/mL (≈ 19.9 µM); with S. aureus SA0422 (SA0422, read-out: MIC values), 2 µg/mL (≈ 4.98 µM); with S. aureus SA0736 (SA0736, read-out: MIC values), 2 µg/mL (≈ 4.98 µM); with S. aureus SA0736 (setting [11]), 4 µg/mL (≈ 9.96 µM). The MIC with S. aureus SA0736 (setting [5]) stood at 4 µg/mL (≈ 9.96 µM); with S. aureus ATCC 29213 (setting [1]), 0.125 µg/mL (≈ 0.311 µM).
